Data as given in patent publication US20240148745A1, “COMPOUNDS FOR USE IN PROGRESSIVE MULTIPLE SCLEROSIS” (FONDAZIONE CENTRO SAN RAFFAELE, priority 2021, published 2024).
Read-outs that look alike come from different tables or passages of the source.

Tests used:
[1] = test system: iPSC-derived neurons (DIV45)
Method: This protocol was modified from Yuchen Qi et al.^32 First, neural progenitors (NPCs) were generated from hiPSCs by dual-SMAD inhibition. Shortly, at day 0 iPSC colonies (confluent at 70-80%) were washed with PBS Dulbecco's w/o Calcium w/o Magnesium (Euroclone) and hiPSCs' maintenance medium (mTeSR™, StemCell Technologies) was replaced with neural induction medium composed by DMEM/F12 plus N2 medium (1×), B27 without RA supplement (0.5×) (Life Technology), added with SB431542 (10 μM) and LDN (500 nM). This medium was kept until day 4 (“induction”). At day 4, cells were splitted (1:3) with the same induction medium using Accutase®/Accumax™ (StemCell Technologies) dissociated solution. Entire medium was replaced daily up to days 14-16 until rosette formation was observed (“patterning”). At days 14-16, cells were detached by Accutase®/Accumax™ and re-plated on polyornitine/laminin/fibronectin coated MW96 or MW24 plates for terminal differentiation in Neurobasal medium supplemented with B27 (0.5×), BDNF (20 ng/ml), dbcAMP (500 μM), ascorbic acid (200 μM), PD0325901 (1 μM), SU5402 (5 μM), CHIR (3 μM), human recombinant insulin (5 μg/ml), supplemented with RI (Rock inhibitor) (1:3000) to reduce dissociation induced apoptosis. The half of differentiation medium was changed every 3-4 days, supplemented with 1 μg/ml laminin and DAPT (1-2 μM) until terminal maturation of neuronal population (MAP2+ cells). Cultures were characterized by immunocytochemistry and qRT-PCR and neuroprotective experiments were performed on days 30-40 of differentiation.
Evaluation of cytotoxicity of 160 selected compounds on iPSC-derived neurons (DIV45).

[2] = test system: rat oligodendrocyte progenitor CG4 line; assay: Differentiation assay on rat oligodendrocyte progenitor CG4 line (HCS, mCherry+); assay type: cell-based; conditions: secondary screen of 49 selected compounds, 1 μM, 5 days
Procedure, shortened: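 Double-reporter CG4 cells (mCherry in mature oligodendrocytes, EGFP in all lineage stages) proliferated 24 h, then given compounds at 1 μM for 5 days of differentiation, ⅔ medium changed at day 3. 9cis-RA as positive control, basal medium and 0.1% DMSO as negative; triplicates imaged by HCS, 35 fields/well.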

[3] = test system: murine cortical neurons (14 DIV); assay: NMDA-mediated neuroprotective assay (CCK8 viability); assay type: cell-based, mouse; conditions: 1 μM, 3 h pre-treatment, NMDA 8 μM 24 h, p<0.05
Method: To assess neuroprotective activity of 160 selected non-toxic compounds on primary murine cortical neurons, obtained as described in the previous paragraph, ([…]), cultures were pre-treated with 1 μM compounds for either 3 or 24 hours, followed by 24 hours chronic stimulation with NMDA (8 μM) to induce neuronal damage. Each test plate included: a negative control (untreated), vehicle-treated control (0.02% vol/vol DMSO), a positive neurotoxic control—staurosporine 0.1 μM, a stressor—NMDA 8 μM, a positive neuroprotective control—NAC 300 μM, and a combination of stressor +neuroprotective molecule (NMDA+NAC). Cell viability was measured with Cell Counting Kit-8 assay compared to NMDA-treated control.
The potential neuroprotective activity of 160 selected non-toxic compounds was evaluated on murine cortical neurons (14 DIV) with either 3 h (FIG. 13) or 24 h compounds pre-treatment (FIG. 14). In assay with 3 h pre-treatment, 17 compounds were identified as potential NMDA-neuroprotective hits (marked with black asterisk in FIG. 13, stat. significant at p<0.05, Kruskal-Wallis test with post-hoc two-stage linear step-up procedure of Benjamini, Krieger and Yekutieli multiple comparison correction).

[4] = test system: rat primary OPC cultures; assay: Differentiation of rat primary OPC into MBP+ OLs; assay type: cell-based; conditions: 96 h, 4 days of differentiation, read-out: MBP+ differentiation (MBP+/SOX10+ OLs plus compounds / plus basal medium)
Method: Secondary validation on primary rat OPC differentiation. Re-validation of the best performing compounds promoting OPC differentiation (fold change >1.5) was performed on primary rat OPC cultures in 96 well-plate run in triplicates by triple immunolabeling for CNPase, MBP and SOX10 as a readout. Compounds at […] were added for 4 days of differentiation and then cell cultures were imaged with ArrayScanXTI platform, number of MBP+OLs were quantified by semi-automated software. Basal medium served as a negative control, 9 cis-RA ([…]) was a positive control.
Re-validation of the 49 compounds selected from the short list (160 compounds) using rat primary OPC cultures (compounds tested in triplicates in 3 independent experiments. The secondary validation screen of these compounds performed on rat primary OPC cultures selected 17 best lead compounds with a pro-differentiation activity (MBP+/SOX10+OLs plus compounds/MBP+SOX10+ plus basal medium fold increase) induced a strong differentiation into MBP+OLs (fold increase >1.6). Results are shown in FIG. 7.

[5] = test system: mouse cortical neurons; assay: Morphological integrity evaluation, NMDA 8 μM (MAP2 neurite length and branching); assay type: cell-based; conditions: 3 h pre-treatment, NMDA 8 μM 24 h; Z>0.5 criteria
Method: Apart of viability/metabolic readout in NMDA-mediated neurotoxicity assay, a neuronal structural integrity was evaluated by MAP2 staining. Mouse cortical neurons (14 DIV) cultured in MW96 plates were fixed with 4% paraformaldehyde (PFA). Fixed cells were incubated with blocking solution (PBS 1×, donkey serum 5%, Triton 0.1%) for 1-hour, primary antibody (rabbit α-MAP2, 1:250, Millipore) was applied in the same solution overnight at +4° C. […] Nuclei were stained with 4′-6-diamidino-2-phenylindole (DAPI, Roche). Microscopy was performed using ArrayScan™XTI (ThermoFisher) imaging platform. 15 images per well were acquired and analyzed by CellProfiler. Total neurite length and the total number of non-trunk branches were analyzed. Total neurite length and the total number of branching were evaluated from 15 images/well, each compound or control was tested in triplicates. The total neurite length and total number of branches were converted to a standardized Z-score using formula: Xij=((Xij−μ)/σ), where xij is the raw measurement of the compound located in well (i, j), and μ and σ are, respectively, the mean and the standard deviation of all measurements of the plate.^31
The morphological integrity of mouse cortical neurons upon chronic 24 h NMDA (8 μM) exposure with compounds pre-treatment (3 h) in preventive regimen was evaluated. Control (basal), DMSO, N-acetylcysteine (NAC) served as positive controls, while staurosporine and NMDA were negative controls.

[6] = test system: iPSC-derived glutamatergic neurons; assay: ROS (tBuOOH)-mediated neuroprotective assay on hNeu; assay type: cell-based, human; conditions: control line CTR4, 1 μM, p<0.05
Method: Neuroprotective experiments were performed using iPSC-derived glutamatergic neurons from 3 healthy controls cultured for 30-40 DIV. Cells were pre-treated for 24 h with […] of compounds, vehicle (DMSO) or 5 nM Mito-Q (mitoquinone) served as a positive control. On the next day cells were incubated for 2 h with 100 µM of tert-butyl peroxide (tBuOOH, Sigma), then the medium was replaced and the viability readout by CCK8 viability assay kit (Dojindo) was performed on the following day. The cell viability was expressed as normalized Z score and compared to tBuOOH-treated cells with nonparametric Kruskal-Wallis test with Dunn's multiple comparisons correction.
32 “Front runners” and 7 compounds from short list were tested on iPSC-derived neurons from three control lines in ROS-mediated assay to evaluate a neuroprotective potential of selected compounds. Three independent experiments were performed for CTR4 and CTR8, FIG. 20 (A, C), while two independent experiments were performed for CTR7, FIG. 20 (B).

[7] = test system: human iPS-derived neuroprecursors; assay: Differentiation of human iPS-derived neuroprecursors into MBP+ oligodendrocytes; assay type: cell-based; conditions: 1 μM in minimal medium, p<0.05
From the text: NPC bearing a doxycycline inducible polycistronic construct containing SOX10, OLIG2 and NKX6.2^29 in a human safe harbor (passages 10 to 25) were singularized on day −3 by treatment with Accutase and plated on Matrigel-coated 12-well plates at a density of 100.000 cells per well in N2B27-medium containing equal parts of neurobasal (Invitrogen) and DMEM-F12 medium (Invitrogen) with 1:100 B27 supplement lacking vitamin A (Invitrogen), 1:200 N2 supplement (Invitrogen), 1% penicillin/streptomycin/glutamine (PSG), 3 μM CHIR99021 (Axon Medchem), 150 μM ascorbic acid and 0.5 μM SAG. The next day medium was changed to N2B27-medium containing 1 μg/ml doxycycline. On DO medium was changed to glial-induction medium (GIM) consisting of DMEM-F12 with 1:100 B27 supplement lacking vitamin A, 1:200 N2 supplement, 1% PSG, 1 μM SAG, 10 ng/mL NT3 (Peprotech), 10 ng/mL IGF-I (Peprotech), 200 μM AA (Sigma), 1:1000 Trace Elements B (Corning). For full medium conditions 10 ng/ml T3 was added. On Day 2 medium was changed to glial-differentiation medium (GDM) comprising DMEM-F12 with 1:100 B27 supplement lacking vitamin A, 1:200 N2 supplement, 1% PSG, 100 μM dbCAMP (Sigma), 100 μM AA, 1:1000. For full medium conditions 60 ng/mL T3, Trace Elements B 10 ng/mL, IGF-I, 10 ng/mL and NT3 were added to the culture. GDM was changed every other day. On day 7 cells were detached by treatment with Accutase and re-plated on laminin coated 48-well plates at densities of 10.000-12.000 cells per well. After 24 h cells were treated in minimal medium with either vehicle alone [0.01% (vol/vol) DMSO] as a negative control, 60 ng/mL T3 as a positive control, or with a drug candidate dissolved in DMSO. Medium was changed every other day. On D16 doxycycline was removed from the medium. Cells were fixed on D21 and analyzed via immunocytochemistry.
Immunocytochemistry. Cells were initially fixed with 4% PFA treatment for 20 min, RT. Following three washes with PBS cells were incubated with blocking solution containing 5% normal goat serum (NGS) and 5% FCS (fetal calf serum) in PBS for 30 min at RT to prevent unspecific binding of the antibodies. To detect intracellular antigens cells were permeabilized by adding 0.5% Triton X-100 to the Blocking-solution. Cells treated with Triton X-100 were washed three times with PBS each time for 5 min at RT. Primary antibodies (rat anti-MBP,1:50, Abcam, AB7349) were applied overnight, 4° C., in blocking solution. The next day cells were washed 3 times with PBS at RT, and afterwards incubated with secondary antibodies (AF488 Alexa Fluor anti-rat (goat), 1:500, Jackson/Dianova, #112-545-167) diluted in PBS for 1 h at RT. Secondary antibodies were subsequently removed by washing 3 times with PBS. Afterwards PBS containing a Dapi staining for nuclei was added for 5 minutes and afterwards washed off with PBS. Cells were kept at 4° C. until imaging.
Imaging and evaluation. From each condition (triplicates) 20-30 pictures were taken randomly chosen by the Dapi-signal. Cell numbers were determined by using an ImageJ Macro to count the nuclei whereas MBP positive cells were subsequently counted manually in black and white images.
The effect on oligodendroglial differentiation of 32 compounds (“Front runners”) was tested. Induced pluripotent stem cells in which the transcription factors SOX10, OLIG2, NKX6.2 were inserted in a doxycycline inducible manner into a human safe harbor were differentiated into neural stem cells. Differentiation into oligodendrocytes was induced by addition of doxycycline. Cells were cultured either in a minimal medium (MM) (negative control) or in MM with the different compounds at a concentration of 1 μM. Addition of T3 to the minimal medium served as a positive control.

Row | SMILES | viability compared to DMSO ([1]; human) | CG4 differentiation compared with 9cis-RA positive control [2] | neuroprotection of viability/metabolic activity against NMDA [3] | further results
1 | Cc1c(Cc2ccc3ccccc3n2)c2cc(F)ccc2n1CC(=O)O [0C000459, TIMAPIPRANT] | 65-80% | promoting differentiation significantly higher than 9cis-RA positive control | hit compounds | fold induction at 1 µM [4]: > 1.6
2 | CNCc1ccc(C)c(NC(=O)c2ccc(Nc3nc(-c4ccccc4)c4ccccc4n3)cc2)c1 [BMS-833923] | 65-80% | promoting differentiation significantly higher than 9cis-RA positive control |  | 
3 | Cc1nc(C#Cc2ccnc(Cl)c2)c(C)n1-c1ccc(F)cc1 [Basimglurant] | 65-80% |  |  | preservation of neurite length and network integrity (branching) [5]: preserved both neurite length and the network integrity (branching)
4 | OC1CCC(Nc2nc(-c3ccccc3)nc3[nH]ccc23)CC1 (centres unmarked) [Derenofylline] | 65-80% |  |  | 
5 | Oc1ccc([C@H]2COc3cc(O)ccc3C2)cc1 [Equol] |  | promoting differentiation significantly higher than 9cis-RA positive control |  | protection from tBuOOH insult [6]: protected from tBuOOH insult
6 | CNC(=O)c1ccc(Oc2ccc3c(c2)CCN(C2CCC2)CC3)nc1 [GSK189254] |  | promoting differentiation significantly higher than 9cis-RA positive control | hit compounds | protection from tBuOOH insult [6]: protected from tBuOOH insult; differentiation into MBP+ oligodendrocytes [7]: promote significantly (p<0.05) the differentiation into MBP+ oligodendrocytes; differentiation into MBP+ oligodendrocytes ([7]; listed as Gsk189254): promote significantly the differentiation into MBP+ oligodendrocytes
7 | CCn1c(=O)c2c(nc(/C=C/c3ccc(OC)c(OC)c3)n2C)n(CC)c1=O [Istradefylline] | 65-80% |  |  | 
8 | CC[C@@H](Oc1cccc(CN(CCCOc2ccc(OC)cc2)c2nc3ccccc3o2)c1)C(=O)O [K-877 Pemafibrate] |  |  |  | viability compared to DMSO [1]: 65-80%
9 | CC1(C)CC(C)(C)CC(C)(N)C1 [Neramexane] |  | promoting differentiation significantly higher than 9cis-RA positive control | hit compounds | viability compared to DMSO [1]: 65-80%; preservation of neurite length and network integrity (branching) [5]: preserved both neurite length and the network integrity (branching)
10 | COc1cccc(OC)c1-c1cc(C(=O)NC2(C(=O)O)C3CC4CC(C3)CC2C4)nn1-c1ccnc2cc(Cl)ccc12 (centres unmarked) [Reminertant] | 65-80% |  |  | 
